Literature values in patent publication US20070032555A1, “Novel aryloxyphenyl-propanamines” (priority 2005, published 2007).

How the values were obtained:
[1] = tested on: 6-hydroxydopamine-lesion rats
[2] = humans, FDA Talk Paper T04-60

half life (CYP2D6 poor metabolisers (PM)): 62 h
mean half life (healthy volunteers, CYP2D6 extensive metabolizers (EM)): 18 h
increase of total exposure, measured as AUC0-τ (poor metabolisers (PM) versus extensive metabolizers (EM)): 8-10 fold
SMILES: CNCC[C@@H](Oc1ccccc1C)c1ccccc1 [Compound 1, (R)-N-methyl-3-phenyl-3-(o-tolyloxy)propan-1-amine]
motor hyperactivity [1]: reductions in their motor hyperactivity
hepatotoxicity [2]: rare but very severe hepatotoxicity
